Results reported in ChEMBL document CHEMBL1151036, “Synthesis and HIV-1 inhibition of novel benzimidazole derivatives” (Bioorg Med Chem Lett, 1995).

Legend:
C8166 [1] = assay: Inhibitory activity against HIV-111B in C8166 cells; assay type: functional, cell-based; settings: Homo sapiens
C8166 [2] = assay: Compound was tested for toxicity against HIV-111B in C8166 cells; assay type: functional; settings: Homo sapiens, read-out: TC50 (the source's name)
[3] = target: Human immunodeficiency virus type 1 reverse transcriptase (Human immunodeficiency virus 1) (UniProt Q72547); assay: Concentration required for inhibition of HIV-1 reverse transcriptase (RT)
[4] = target: Human immunodeficiency virus type 1 reverse transcriptase (Human immunodeficiency virus 1) (UniProt Q72547); assay: Compound was tested for % inhibition of HIV-1 reverse transcriptase (RT); settings: concentration not given here
[5] = Selectivity ratio of TC50 to that of EC50; assay type: functional
[6] = Selectivity ratio of TC50 to that of EC50; value ranges from 33-50; assay type: functional
C8166 [7] = assay: Compound was tested for toxicity against HIV-111B in C8166 cells; value ranges from 20-30 uM; assay type: functional; settings: Homo sapiens, read-out: TC50 (the source's name)
[8] = Selectivity ratio of TC50 to that of EC50; value ranges from 12.5-19; assay type: functional

Question: Which results are given for CCCOn1c(CC)nc2c(C)cccc21?
Answer: EC50 (C8166 [1]): 6 µM; CC50 (C8166 [2]): 1000 µM; Concentration [3]: 100 µM; inhibition [4]: 66%; Ratio [5]: 167

Question: Which EC50 (C8166 [1]) does the source give for CCCn1c(SC)nc2c(CBr)cccc21 here?
Answer: Its EC50 is 8 µM.

Question: And the CC50 (C8166 [2])?
Answer: The CC50 was 80 µM.

Question: What about the Ratio [5] of the same compound?
Answer: The Ratio was 10.

Question: Which EC50 (C8166 [1]) does the source give for CCCn1c(SC)nc2c(C)cccc21 here?
Answer: The EC50 was 4 µM.

Question: And the CC50 (C8166 [2])?
Answer: The CC50 was 100 µM.

Question: And the Ratio [5]?
Answer: Its Ratio is 25.

Question: For Cc1cn([C@H]2C[C@H](N=[N+]=[N-])[C@@H](CO)O2)c(=O)[nH]c1=O [ZIDOVUDINE], which CC50 (C8166 [2]) is on record?
Answer: The CC50 was over 1000 µM.

Question: For CCCOn1c(CC)nc2ccc(OC)cc21, which EC50 (C8166 [1]) is on record?
Answer: Its EC50 is 3.2 µM.

Question: And the CC50 (C8166 [2])?
Answer: Its CC50 is 100 µM.

Question: And the Ratio [5]?
Answer: Its Ratio is 31.

Question: What does the source list for CCCOn1c(CC)nc2ccc(Cl)cc21?
Answer: EC50 (C8166 [1]): 0.6 µM; CC50 (C8166 [2]): 40 µM; Concentration [3]: 10 µM; inhibition [4]: 50%; Ratio [5]: 67

Question: Which EC50 (C8166 [1]) does the source give for CCCOn1c(CC)nc2ccccc21 here?
Answer: Its EC50 is 2 µM.

Question: And the CC50 (C8166 [2])?
Answer: Its CC50 is 100 µM.

Question: What about the Ratio [6] of the same compound?
Answer: The Ratio was 33.

Question: Which EC50 (C8166 [1]) does the source give for CC(C)=CCN1Cc2cc(Cl)cc3[nH]c(=S)n(c23)C[C@@H]1C here?
Answer: The EC50 was 0.002 µM.

Question: What about the CC50 (C8166 [2]) of the same compound?
Answer: Its CC50 is 62 µM.

Question: What about the Concentration [3] of the same compound?
Answer: Its Concentration is 0.16 µM.

Question: What about the inhibition [4] of the same compound?
Answer: The inhibition was 50%.

Question: What about the Ratio [5] of the same compound?
Answer: Its Ratio is 31000.

Question: Which EC50 (C8166 [1]) does the source give for CCCOn1c(CC)nc2ccc(C)cc21 here?
Answer: Its EC50 is 1.6 µM.

Question: What about the CC50 (C8166 [7]) of the same compound?
Answer: The CC50 was 20 µM.

Question: What about the Ratio [8] of the same compound?
Answer: Its Ratio is 12.5.
